One assay addresses bovine thrombin (Bos taurus, UniProt P00735). Put plainly: Chromogenic thrombin inhibition assay in plasma samples pretreated with oxidizing agent (sodium hypochlorite) and neutralizing agent (HCl). Format: biochemical. The following applies: for ΔA/min (conversion of chromogenic thrombin substrate): plasma without inhibitor 2623. The procedure:
(§1) Various amounts of direct coagulation factor inhibitors (rivaroxaban as direct factor Xa inhibitor, argatroban as direct thrombin inhibitor) or indirect coagulation factor inhibitors (fondaparinux pentasaccharide [Arixtra®], high-molecular-weight heparin [HMWH]) were added to normal human plasma.
(§2) 20 μl of plasma sample were mixed with 10 μl of a 0.1% strength hypochlorous acid (sodium hypochlorite) as oxidizing agent, and the reaction mix was incubated at +37° C. for 30 seconds. Subsequently, 10 μl of a 0.1% strength hydrochloric acid solution were added to the reaction mix to neutralize the oxidizing agent, and the reaction mix was incubated at +37° C. for 30 seconds. Subsequently, 140 μl of thrombin reagent (bovine thrombin, 6 U/ml) were added to the reaction mix, and the reaction mix was incubated at +37° C. for 30 seconds. Subsequently, 50 μl of a chromogenic thrombin substrate (Tos-L-Gly-Pro-Arg-ANBA-isopropylamide, 4 mmol/l) were added to the reaction mix, and conversion of the substrate (in ΔA/time) was determined at a wavelength of 405 nm in an automated coagulation measurement instrument (BCS® System, Siemens Healthcare Diagnostics).
(§3) The reduction in substrate conversion compared to plasma without any inhibitors correlates with the amount of inhibitor in the sample.

For the next assay, the target named is human factor Xa (Homo sapiens, UniProt P00742). Briefly: Chromogenic factor Xa inhibition assay in plasma samples pretreated with oxidizing agent (sodium hypochlorite) and neutralizing agent (HCl). It counts as biochemical. The following applies: for ΔA/min (conversion of chromogenic factor Xa substrate): plasma without inhibitor 2268. The procedure: as §1
Chain of human factor Xa (P00742 235-488 limits assumed): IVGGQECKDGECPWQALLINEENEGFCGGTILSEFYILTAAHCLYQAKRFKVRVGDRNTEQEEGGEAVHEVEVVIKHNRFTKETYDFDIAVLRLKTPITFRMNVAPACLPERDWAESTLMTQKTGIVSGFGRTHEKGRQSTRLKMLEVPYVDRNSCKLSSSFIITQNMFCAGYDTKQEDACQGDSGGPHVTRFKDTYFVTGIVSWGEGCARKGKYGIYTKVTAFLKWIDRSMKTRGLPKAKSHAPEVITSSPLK
Chain of human factor Xa (P00742 41-179 partner limits assumed): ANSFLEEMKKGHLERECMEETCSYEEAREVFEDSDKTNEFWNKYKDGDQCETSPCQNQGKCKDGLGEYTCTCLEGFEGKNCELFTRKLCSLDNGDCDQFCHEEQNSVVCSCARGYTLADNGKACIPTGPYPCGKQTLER
as §2, with “95” for “140”, “factor Xa” for “thrombin”, “(human factor Xa, 1 U/ml in TRIS buffer, pH 8.0)” for “(bovine thrombin, 6 U/ml)”, “80” for “50”, “(Z-D-Leu-Gly-Arg-ANBA-methylamide,” for “(Tos-L-Gly-Pro-Arg-ANBA-isopropylamide,”
as §3

Where [1] appears, read: 20 μg/ml in normal human plasma, pretreated sample.
Setting [2] is: 200 μg/ml in normal human plasma, pretreated sample.
The mark [3] stands for this setting: pretreatment with hypochlorite then HCl.
Where [4] appears, read: plasma samples containing the substance.
Where [5] appears, read: 200 ng/ml in normal human plasma, pretreated sample.

For `CC1CNc2c(cccc2S(=O)(=O)N[C@@H](CCCNC(=N)N)C(=O)N2CC[C@@H](C)C[C@@H]2C(=O)O)C1` (stereo partly drawn) [argatroban], at bovine thrombin (setting [1]), the inhibition at 20 µg/mL is 95% and the “ΔA/min (conversion of chromogenic thrombin substrate)” value is listed as 140 ΔA/min. At bovine thrombin (setting [2]), the inhibition at 200 µg/mL was 99% and the “ΔA/min (conversion of chromogenic thrombin substrate)” value is 36 ΔA/min. At bovine thrombin (setting [3]), the “effect of pretreatment of the samples on the inhibition of thrombin by the substance (in words)” value is reported as “not impaired”. The “ΔA/min (conversion of chromogenic factor Xa substrate)” value on human factor Xa (setting [1]) was 2176 ΔA/min. In addition, the inhibition at 20 µg/mL at human factor Xa (20 μg/ml in normal human plasma, pretreated sample, read-out: FXa inhibition) came to 4%. Further, the “factor Xa inhibition (in words)” value on human factor Xa (setting [4]) is recorded as “factor Xa inhibition does not take place”.
Take `O=C(NC[C@H]1CN(c2ccc(N3CCOCC3=O)cc2)C(=O)O1)c1ccc(Cl)s1` [rivaroxaban]: on bovine thrombin (setting [5]), the inhibition at 0.2 µg/mL is 0% and the “ΔA/min (conversion of chromogenic thrombin substrate)” value is 2612 ΔA/min. Further, the “thrombin inhibition (in words)” value at bovine thrombin (setting [4]) is listed as “thrombin inhibition does not take place”. For the same compound, the “ΔA/min (conversion of chromogenic factor Xa substrate)” value at human factor Xa (setting [5]) is 1296 ΔA/min. Moreover, the inhibition at 0.2 µg/mL on human factor Xa (200 ng/ml in normal human plasma, pretreated sample, read-out: FXa inhibition) came to 43%. Also, on human factor Xa (setting [3]), the “effect of pretreatment of the samples on the inhibition of factor Xa by the substance (in words)” value is “not impaired”.
For `CO[C@H]1O[C@H](COS(=O)(=O)O)[C@@H](O[C@@H]2O[C@@H](C(=O)O)[C@@H](O[C@H]3O[C@H](COS(=O)(=O)O)[C@@H](O[C@@H]4O[C@H](C(=O)O)[C@@H](O[C@H]5O[C@H](COS(=O)(=O)O)[C@@H](O)[C@H](O)[C@H]5NS(=O)(=O)O)[C@H](O)[C@H]4O)[C@H](OS(=O)(=O)O)[C@H]3NS(=O)(=O)O)[C@H](O)[C@H]2OS(=O)(=O)O)[C@H](O)[C@H]1NS(=O)(=O)O` [Arixtra, fondaparinux], the inhibition at 1 µg/mL on bovine thrombin (1 μg/ml in normal human plasma, pretreated sample) worked out at 5%; at human factor Xa (1 μg/ml in normal human plasma, pretreated sample, read-out: FXa inhibition) it was 4%. Moreover, the inhibition at 4 µg/mL was 2% at bovine thrombin (4 μg/ml in normal human plasma, pretreated sample) and 3% at human factor Xa (4 μg/ml in normal human plasma, pretreated sample, read-out: FXa inhibition).

For orientation: inhibition means the drop in the measured response relative to a control, in per cent.

Source of the values: patent US8685636B2, “Heparin-insensitive method for determining direct coagulation factor inhibitors” (Siemens Healthcare Diagnostics Products GmbH, priority 2011, dated 2014).
